Literature values as cited in patent US20050003017A1, “Hypotensive and hypertensive properties of renomedullar extracts” (priority 2000, published 2005).

Details: low stability; Svensson et al.

CCCCC[C@H](O)/C=C/[C@H]1O[C@H]2C[C@H](O2)[C@@H]1C/C=C\CCCC(=O)O [thromboxan A2]
half life: about 30 seconds
